According to PMC4415882 (Biochemistry, 2013):

Experiments:
[1] = target: NPP (nucleotide pyrophosphatase/phosphodiesterase) (Xanthomonas citri, UniProt A0A0U5FM15, L123A); conditions: read-out: average; average over substrates pNPP, Me-pNPP, bis-pNPP, dT-5'-pNPP (subsaturating); 0.1 M Tris-HCl pH 8.0, 0.5 M NaCl, 100 µM ZnCl2, 25 °C; competitive
[2] = target: NPP (nucleotide pyrophosphatase/phosphodiesterase) (Xanthomonas citri, UniProt A0A0U5FM15, T90S); conditions: read-out: average; average over substrates pNPP, Me-pNPP, bis-pNPP, dT-5'-pNPP (subsaturating); 0.1 M Tris-HCl pH 8.0, 0.5 M NaCl, 100 µM ZnCl2, 25 °C; competitive

[O]=[V]([OH])([OH])[OH] [vanadate]
Ki [1]: 154 ± 8 µM | Ki [2]: 340 ± 140 µM
